We go through four compounds from patent US8133907B2, “Pyridine derivatives as dipeptedyl peptidase inhibitors” (Eli Lilly and Company, priority 2005, dated 2012).

The target of this assay is T1, human recombinant DPIV enzyme (Homo sapiens, UniProt P27487).
T1 construct: Secreted DPIV (lacking membrane anchor) is enriched from HEK293 cell culture supernatant; made in house; host or cells: HEK293
Description: Human Recombinant DPIV Activity Assay (fluorometric end point, Gly-Pro-AMC substrate). The assay is classed as biochemical. The note with it: enriched human recombinant DPIV enzyme (21.3 μU/μl), Gly-Pro-AMC 0.02 mM, 12 points concentration response curve, duplicate. Here is the method:
Human Recombinant DPIV Activity Assay
The DPIV assay uses a fluorometric end point assay (excitation 355 nm; emission 460 nm), enriched human recombinant DPIV enzyme (21.3 μU/μl), and Gly-Pro-AMC (Bachem I-1225) as substrate (0.02 mM). Secreted DPIV (lacking membrane anchor) is enriched from HEK293 cell culture supernatant by ultrafiltration, ultra-centrifugation, and size-exclusion chromatography. IC50 values of the compounds are calculated based on a 12 points concentration response curve. Each concentration is measured in duplicate. The assay is validated by plate variability and conformity, inter-plate variability, signal window, and minimum significant ration of IC50. A MSR is calculated based on a test/retest analysis and a retrospective analysis. The MSR value is 1.8.

Structures can show the parent of a compound that is named as a salt.

As a reminder, the IC50 is the concentration that inhibits the measured activity by half.

T1 sequence (P27487 29-766 limits assumed): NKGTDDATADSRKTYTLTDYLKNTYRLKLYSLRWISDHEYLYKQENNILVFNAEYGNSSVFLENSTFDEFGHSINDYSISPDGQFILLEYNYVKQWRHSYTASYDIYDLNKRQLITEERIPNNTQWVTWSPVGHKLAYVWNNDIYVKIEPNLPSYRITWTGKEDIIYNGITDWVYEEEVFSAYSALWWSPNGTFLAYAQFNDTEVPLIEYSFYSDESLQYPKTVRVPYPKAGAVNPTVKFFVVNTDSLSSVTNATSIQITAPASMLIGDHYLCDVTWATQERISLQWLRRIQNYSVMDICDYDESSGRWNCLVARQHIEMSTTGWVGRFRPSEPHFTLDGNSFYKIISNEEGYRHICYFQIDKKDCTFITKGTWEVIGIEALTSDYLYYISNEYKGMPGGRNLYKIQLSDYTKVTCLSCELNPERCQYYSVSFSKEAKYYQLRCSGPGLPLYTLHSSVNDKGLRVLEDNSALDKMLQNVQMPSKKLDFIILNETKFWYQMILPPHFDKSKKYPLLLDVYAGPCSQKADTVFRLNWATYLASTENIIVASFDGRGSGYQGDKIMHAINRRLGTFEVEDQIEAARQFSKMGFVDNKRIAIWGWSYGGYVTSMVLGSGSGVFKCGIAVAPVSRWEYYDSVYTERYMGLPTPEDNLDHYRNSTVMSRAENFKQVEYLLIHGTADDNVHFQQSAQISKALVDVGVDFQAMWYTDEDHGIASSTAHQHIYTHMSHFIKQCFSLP

As for `CC(C)(C)NC(=O)c1cccnc1C[C@H](O)[C@H](N)Cc1cc(F)ccc1C(F)(F)F` (racemic) [Example 10, 2-[(2SR,3RS)-3-Amino-4-(5-fluoro-2-trifluoromethylphenyl)-2-hydroxybutyl]-N-tert-butylnicotinamide Dihydrochloride], the IC50 is 0.342 µM.
The result for `N[C@H](Cc1ccccc1F)[C@@H](O)Cc1ccccn1` [Example 27, (2S,3R)-3-Amino-4-(2,-fluoro-phenyl)-1-pyridin-2-yl-butan-2-ol Dihydrochloride] reads 0.232 µM; that for `Cc1ccc(C)c(C[C@@H](N)[C@@H](O)Cc2ncccc2C(=O)NC(C)(C)C)c1` [Example 8, 2-[(2S,3R)-3-Amino-4-(2,5-dimethyl-phenyl)-2-hydroxy-butyl]-N-tert-butyl-nicotinamide Dihydrochloride], 0.03 µM; that for `CC(C)(NC(=O)c1cccnc1C[C@H](O)[C@H](N)Cc1ccccc1F)c1ccccc1` [Example 23, 2-[(2S,3R)-3-Amino-4-(2-fluoro-phenyl)-2-hydroxy-butyl]-N-(1-methyl-1-phenyl-ethyl)-nicotinamide Dihydrochloride], 0.022 µM.
